From PubChem BioAssay AID179 (DTP/NCI, 2004)
Where “and” joins values, the source holds several entries; their conditions need not be identical. Equal values may be shown once. Calls of active or inactive are those of the source.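 Rule for the calls: active = compounds giving half or more protection of infected cells from virus-caused growth loss, again on retest; inactive = the rest.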 Where a SMILES comes first, the peptide text is derived from it. The star is where a group is joined. Cbz = O=C(OCc1ccccc1)*

Test system: CEM cells HIV-1 protection, formazan growth assay
Assay: NCI AIDS Antiviral Assay
Conditions: for IC50: measured here: growth of uninfected CEM cells
Method in brief: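 Human CEM cells, uninfected and HIV-1-infected, received five drug concentrations, and growth was read by soluble formazan assay. Compounds giving at least 50% protection were retested; reproducible 100% protection defined confirmed active.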

SMILES | EC50 [µM] | IC50 | outcome
CC(O)C[P+](c1ccccc1)(c1ccccc1)c1ccccc1 (centres undefined) | > 200 | 15.8 µM | 
CCOc1ccc(NC(=O)CC2C(=O)Nc3ccccc3S2(=O)=O)cc1 (centres undefined) | > 19.5 | > 19.5 µM | 
COc1ccc(/C=C2/C(=O)N(C(=O)c3ccc(Cl)cc3)N=C2C)cc1OC | > 35.5 | > 35.5 µM | 
Oc1ccc(/C=C/c2ccc(O)c(O)c2)cc1O | > 200 | 14.5 µM | 
Cc1nc2[nH]c(=O)n(OS(=O)(=O)c3ccccc3)c(=O)c2s1 | > 200 | 35.5 µM | 
C=CC(c1ccccc1)[C@@]1(OC(C)=O)C(=O)C(=O)OC1C1COC(C)(C)O1 (some centres undefined) | > 200 | 6.46 µM | 
NS(=O)(=O)c1ccc(NC(=O)C2C(=O)C(=O)N(c3ccc(S(N)(=O)=O)cc3)C2=O)cc1 (centres undefined) |  |  | inactive
Nc1nn2cc3c(nc2c1N=Nc1ccc(Cl)cc1)CCCCC3 | > 151 | > 151 µM | 
Nc1nc2ncn(COC(CO)CO)c2c(=O)[nH]1 | > 200 | > 200 µM | 
Cc1cc(Cl)ccc1C1OC(=O)c2c1ccc1ccccc21 (centres undefined) | > 23.4 | > 23.4 µM | 
O=C1c2cccn2-c2ccccc2OC1(CC1CC1)c1ccccc1 (centres undefined) | > 200 | 11.5 µM | 
O=C1Oc2ccccc2C(=O)/C1=C/N1C(=O)/C(=C/c2ccc3c(c2)OCO3)SC1=S | > 200 | 20.4 µM | 
COC(=O)/C=C/CCC#Cc1ccccc1C#CCC/C=C/C(=O)OC | > 200 | 2.82 µM | 
Cc1ccc(C)c(C(=O)c2ccccc2)c1C(=O)O | > 200 | > 200 µM | 
COc1ccc2nc3c([N+](=O)[O-])ccc4c3c(c2c1)NCCN4CCN(C)C | > 200 | 1.05 µM | 
CCC[CH2][Sn]1([CH2]CCC)[O]CC(C)[O]1 (centres undefined) |  |  | inactive
C/C(=N\NC(=O)c1cccc2c(=O)c3ccccc3[nH]c12)C1CC[C@H]2[C@@H]3CCC4=C/C(=N\NC(=O)c5cccc6c(=O)c7ccccc7[nH]c56)CC[C@]4(C)[C@H]3CC[C@]12C (some centres undefined) | > 50.1 | > 50.1 µM | 
O=C1NCC2(CCN(CCCC3(c4ccc(F)cc4)OCCO3)CC2)N1c1ccccc1 | > 200 | > 200 µM | 
C[C@@H]1CC[C@]2(C)C3(C)CC[C@]2(OC3=O)[C@@]12CC(c1ccoc1)OC2=O (some centres undefined) | > 200 | 33.9 µM | 
N=C(N)c1ncn(C2OC(CO)C(O)C2O)n1 (centres undefined) |  |  | inactive
CCC(C)C(NC(=O)C1CCCN1C(=O)OCc1ccccc1)C(=O)O (stereo not drawn) (Cbz-Pro-Ile-OH; configuration not given here) | > 692 | > 692 µM | 
COc1ccc(OC)c(CCCC(=O)O)c1 | 0.0631 | > 200 µM | 
COC(=O)CCc1ccc(CCC(=O)OC)cc1 | > 200 | > 200 µM | 

SMILES | EC50 [µM] | IC50 | outcome
C[CH2][Sn]([CH2]C)([O]C(=O)c1ccccc1F)[O]C(=O)c1ccccc1F | > 29.5 | 17.4 µM | 
CN(C)CCN(C(=Nc1ccccc1)N1CCCC1)c1ccccc1 | > 200 | 8.32 µM | 
COc1ccc(NS(=O)c2ccc(Cl)cc2)cc1 (centres undefined) | > 200 | 17.4 µM | 
Cc1ccc(S(=O)(=O)NC(=S)S)cc1 | > 200 | > 200 µM | 
CC(C)(C)N1C[C@H](C(=O)c2ccccc2)[C@@H]1c1ccccc1 | > 33.9 | > 33.9 µM | 
C=CCCCCCCCCCCCC1CCC(CC)N1 (centres undefined) | > 240 | > 240 µM | 
C=CC(C)(C)n1cc(C2=C(O)C(=O)C(c3cn(C(C)(C)C=C)c4ccccc34)=C(OC(C)=O)C2=O)c2ccccc21 | > 20 | 1.07 µM | 
COc1ccc(CCNC(=S)/N=C\C(C(=O)c2ccccc2)=C(\O)c2ccccc2)cc1OC |  |  | inactive
Cc1cnc2c(c1C)C(=O)c1ccccc1C2=O |  |  | inactive
CO/N=C1/c2sccc2[C@H](NC(=O)C(Cc2ccccc2)NC(=O)OC(C)(C)C)[C@@H]1O (some centres undefined) | > 200 | > 200 µM | 
C(=C\c1cc(-c2ccc3ccccc3n2)nc2ccc3ccccc3c12)/c1ccc2ccccc2n1 | > 200 | > 200 µM | 
COc1ccc(-c2c(O)c3ccc(OC)cc3oc2=O)cc1 | > 200 | 155 µM | 
CC/C=C(\C)C(CCC)(CN=O)C(=O)OCC (centres undefined) |  |  | inactive
CN1CCN(C)C12C=c1ccccc1=CC21CC1 |  |  | inactive
O=C1c2cccc3cccc(c23)C(=O)N1CCCCCCCCN1C(=O)c2cccc3cccc(c23)C1=O | > 200 | 14.8 µM | 
O=Nc1ccc(O)c(Cl)c1 | > 200 | 13.2 µM | 
Cc1cc(C)c2c(c1)N[S@@](=O)S2 | > 13.5 | > 13.5 µM | 
O=c1[nH]cnc2c1ncn2C1SC(CO)C(O)C1O (centres undefined) | > 200 | 117 µM | 
CC(=O)OCC(OC(C)=O)C(OC(C)=O)C(OC(C)=O)C(OC(C)=O)C(OC(C)=O)c1nc2ccccc2[nH]1 (centres undefined) | > 200 | > 200 µM | 
O=C(O)/C(Cl)=C(/Cl)C(=O)Nc1cc(Cl)ccc1Cl |  |  | inactive
Cc1cc2nc3c(C#N)c(C)c(CCCl)c(Cl)n3c2cc1C | > 200 | 3.31 µM | 
Cc1ccc(C[N+](C)(C)N)cc1C | > 200 | > 200 µM | 
Nc1ccc(SSc2ccc(Nc3ccnc4cc(Cl)ccc34)cc2)cc1 | > 200 | 5.01 µM | 

SMILES | EC50 [µM] | IC50 | outcome
COc1ccc2c(O)c(S(=O)(=O)c3ccc(Cl)cc3)c(=O)oc2c1 | > 200 | 129 µM | 
COc1ccc(NC(=O)C2=CC(=O)c3ccc(O)cc3C2=O)c(OC)c1 | 75.9 | 708 µM | 
Clc1ccc2nc(CCSCCc3nc4ccc(Cl)cc4[nH]3)[nH]c2c1 |  |  | inactive
COCN1C(=N)C(C(=O)OC(C)(C)C)=C2C=C(O)C=CC21C (centres undefined) | > 200 | 1.45 µM | 
CSc1cccc(-n2c3nc(=O)n(C)c(=O)c-3nc3ccccc32)c1 |  |  | inactive
CCOC(=O)c1nc2ccc(C(F)(F)F)cc2nc1Oc1ccc(C(=O)OC)cc1 | > 200 | > 200 µM | 
O=C1C(Cl)=C(Cl)C(=O)N1c1ccc(Cl)c(Cl)c1Cl |  |  | inactive
Cn1c2c(c3nc(N)nc(N)c3c1=O)CCc1ccccc1-2 | > 200 | 12.9 µM | 
CCCCCCCCCCNC(C)=O | > 200 | 85.1 µM | 
CC(=C(C(N)=O)C(N)=O)C1C=C(c2cccs2)CC(c2ccc(Cl)cc2)=C1O (centres undefined) | > 200 | > 100 µM | 
CC(=O)c1c2c(cc3c1CC1(Cc4cc5c(cc4C1)CCCC5)C3)CCCC2 | > 200 | 34.7 µM | 
CCc1c(OC)oc(CCCCCCCCCC(C)C(C)=O)c(C)c1=O (centres undefined) | > 25.1 | 0.0372 µM | 
COc1cc(C2c3cc4c(cc3C(=O)C3CCC(=O)N32)OCO4)cc(OC)c1O (centres undefined) | > 50.1 | 27.5 µM | 
CC(=O)OCC1OC(n2c(=O)n(-c3ccccc3)c(=O)c3ccccc32)C(OC(C)=O)C(OC(C)=O)C1OC(C)=O (centres undefined) | > 24 | > 24 µM | 
CCCc1nc(NC#N)nc(C(=O)Nc2ccccc2)c1CC | > 407 | > 407 µM | 
COc1cc(N(C)C)c(OC)cc1/C=C1\Cc2ccccc2C1=O | > 57.5 | 46.8 µM | 
CCN(CC)C(=O)c1ccc(O)c(OC)c1 | > 200 | > 200 µM | 
CCOC(=O)/C(C1=NCCN1)=C(\O)c1ccccc1 | 468 | 912 µM | 
Cc1ccc(S(=O)(=O)N/N=C(\c2nc3ccc(Cl)cc3[nH]c2=O)C(O)c2cccc([N+](=O)[O-])c2)cc1 (centres undefined) | > 468 | 162 µM | 
CC1(O)Cc2c(O)c3c(c(O)c2CC1O)C(=O)C=CC3=O (centres undefined) | > 12.9 | 1.32 µM | 
CSc1nc(-c2ccc(Cl)cc2)c(C#N)c(=O)n1C1OC(COC(C)=O)C(OC(C)=O)C(OC(C)=O)C1OC(C)=O (centres undefined) | > 132 | 32.4 µM and 89.1 µM | 
Cc1c2ccccc2nc(CSc2n[nH]c(=S)s2)[n+]1[O-] | > 200 | > 200 µM | 
O=C(Nc1ccc(NC(=O)Nc2cc(C(=O)Nc3ccc(C4=NCCN4)cc3)ccc2C(=O)Nc2ccc(C3=NCCN3)cc2)cc1)Nc1cc(C(=O)Nc2ccc(C3=NCCN3)cc2)ccc1C(=O)Nc1ccc(C2=NCCN2)cc1 | 31.6 | > 100 µM | 

SMILES | EC50 [µM] | IC50 | outcome
NCCCNCCSSCc1ccccc1CSSCCNCCCN |  |  | inactive
Cc1ccc2c(c1)C(O)(c1ccccc1)C(c1ccccc1)C(c1ccccc1)O2 (centres undefined) | > 200 | 6.92 µM | 
[N-]=[N+]=CC(=O)OCC1SCCCS1 | > 200 | > 200 µM | 
O=C(/C=C/c1ccccc1)CCN1CCCC1 | > 200 | 8.13 µM | 
NC(=O)CNC(=O)c1ccccc1SC(=O)NCCCCl | 3.72 | 64.6 µM | 
O=C1CC2(CCC(O)(c3ccco3)C(C(=O)c3ccco3)C2)C(=O)c2ccccc2N1 (centres undefined) | > 200 | > 200 µM | 
Cc1[nH]c(=O)[nH]c(=O)c1Cl |  |  | inactive
CC(C)C1OCC(CO)CO1 (centres undefined) | > 200 | > 200 µM | 
Cc1cn(C2C=CCCC2)c(=O)[nH]c1=O (centres undefined) | > 871 | > 871 µM | 
Cc1cc2oc(=O)[nH]c(=S)c2c(C)c1C | > 17 | > 17 µM | 
O=C1NC(c2ccccc2)C1N(Cc1ccccc1)Cc1ccccc1 (centres undefined) | > 200 | > 200 µM | 
COc1cc(/C=C(\C)c2ccc3c(c2)OCO3)cc(OC)c1OC | > 41.7 | > 41.7 µM | 
Nc1ncnc2c1ncn2C(CO)OC(CO)CCP(=O)(O)O (centres undefined) | > 100 | > 100 µM | 
Cc1cc2c(oc(=O)c3cc(C)sc32)s1 | > 42.7 | > 42.7 µM | 
Cc1ccc2c(=O)c3cccc(CC(=O)O)c3[nH]c2c1C | > 200 | 47.9 µM | 
Cc1cccc(C)c1N1C(=O)C(=O)C(c2nc3ccccc3s2)/C(=N\N)C1=O (centres undefined) |  |  | inactive
COc1ccc(/C=C/C(C(=O)O)C(=O)O)cc1 | > 398 | 56.2 µM | 
CSC(SC)=C(C(=O)O)P(=O)(O)O | > 200 | > 200 µM | 
[O-]c1c[n+](C23CCC(c4ccccc42)c2ccccc23)no1 | > 200 | 97.7 µM | 
O=C1CC(c2ccc([N+](=O)[O-])cc2)=Nc2ccccc2N1 | > 200 | > 200 µM | 
